ChEMBL document CHEMBL1126348, “1,3,4-trisubstituted pyrrolidinones as scaffolds for construction of peptidomimetic cholecystokinin antagonists” (Bioorg Med Chem Lett, 1992)
pIC50: −log10 of the molar value.

How the values were obtained:
[1] = target: T1, Cholecystokinin receptor type A (Rattus norvegicus, UniProt P30551); assay: Displacement of [125I]CCK-OP radioligand from Cholecystokinin type A receptor in rat pancreatic acinar membrane binding assay; assay type: cell membranes
T1 sequence (P30551 whole entry): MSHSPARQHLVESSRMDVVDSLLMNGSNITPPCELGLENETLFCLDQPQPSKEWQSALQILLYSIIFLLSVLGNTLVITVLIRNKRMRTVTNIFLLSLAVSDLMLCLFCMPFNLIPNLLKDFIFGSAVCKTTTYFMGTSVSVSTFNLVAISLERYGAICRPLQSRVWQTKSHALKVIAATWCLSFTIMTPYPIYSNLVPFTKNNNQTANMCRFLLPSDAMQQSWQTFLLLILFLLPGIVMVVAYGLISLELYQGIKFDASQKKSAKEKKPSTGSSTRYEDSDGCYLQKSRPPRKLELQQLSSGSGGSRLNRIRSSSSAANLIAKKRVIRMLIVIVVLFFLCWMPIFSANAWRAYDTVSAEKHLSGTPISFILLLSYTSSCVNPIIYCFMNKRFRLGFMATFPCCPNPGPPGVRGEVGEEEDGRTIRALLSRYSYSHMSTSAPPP

[2] = target: T2, Cholecystokinin receptor type A (Cavia porcellus, UniProt Q63931); assay: Compound was tested for competitive blocking of guinea pig ileal smooth muscle strip contraction to cholecystokinin-8 (CCK-8) receptor; assay type: functional; conditions: read-out: pA2 (converted)
T2 sequence (Q63931 whole entry): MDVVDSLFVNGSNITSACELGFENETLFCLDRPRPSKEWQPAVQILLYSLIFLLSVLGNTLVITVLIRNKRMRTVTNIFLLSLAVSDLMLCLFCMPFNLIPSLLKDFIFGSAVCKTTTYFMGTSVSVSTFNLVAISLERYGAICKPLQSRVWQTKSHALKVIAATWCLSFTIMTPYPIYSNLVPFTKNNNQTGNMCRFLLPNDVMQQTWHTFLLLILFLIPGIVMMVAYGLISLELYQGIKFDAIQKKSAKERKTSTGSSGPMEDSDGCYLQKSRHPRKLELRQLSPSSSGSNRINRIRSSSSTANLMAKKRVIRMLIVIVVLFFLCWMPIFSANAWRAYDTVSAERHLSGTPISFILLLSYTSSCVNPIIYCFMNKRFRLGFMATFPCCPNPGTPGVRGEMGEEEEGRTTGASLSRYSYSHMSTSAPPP

[3] = target: T3, Cholecystokinin receptor type A (Rattus norvegicus) (UniProt P30551); assay: Effective dose of compound causing reversal of cholecystokinin-8 (CCK-8) receptor induced delayed gastric emptying in the rat when administered intraperitoneally; assay type: functional; conditions: Stomach
T3 sequence (whole entry): T1 sequence (P30551 whole entry)

[4] = target: T3, Cholecystokinin receptor type A (Rattus norvegicus); assay: Effective dose of compound causing reversal of cholecystokinin-8 (CCK-8) receptor induced delayed gastric emptying in the rat when administered orally; assay type: functional; conditions: Stomach

SMILES	pIC50 [1]	other results
O=C(N[C@@H]1C(=O)N(c2ccccc2F)C[C@@H]1C(=O)O)c1ccc2ccccc2c1	7.21	
O=C(O)[C@H]1CN(c2ccccc2)C(=O)[C@H]1NS(=O)(=O)c1ccc2ccccc2c1	< 6.00	
O=C(N[C@@H]1C(=O)N(c2ccccc2F)C[C@@H]1C(=O)O)c1cnc2ccccc2c1	6.77	
CCCCCN(CCCCC)C(=O)C(CCC(=O)O)NC(=O)c1ccc(Cl)c(Cl)c1 (centres undefined) [LORGLUMIDE]	7.66	
O=C(N[C@@H]1C(=O)N(c2ccccc2)C[C@@H]1C(=O)O)c1cc2ccccc2[nH]1	7.73	
O=C(N[C@@H]1C(=O)N(Cc2ccccc2)C[C@@H]1C(=O)O)c1cc2ccccc2[nH]1	6.26	
O=C(N[C@H]1C(=O)N(c2ccccc2)C[C@@H]1C(=O)O)c1ccc2ccccc2c1	6.54	
O=C(N[C@@H]1C(=O)N(Cc2ccccc2)C[C@@H]1C(=O)O)c1ccc2ccccc2c1	5.89	
O=C(N[C@@H]1C(=O)N(c2ccccc2)C[C@@H]1C(=O)O)c1ccc2ccccc2c1	7.80	Kb [2]: 6.31 nM; ED50 [3]: 0.41 mg/kg; ED50 [4]: 1.8 mg/kg
O=C(N[C@H]1C(=O)N(c2ccccc2)C[C@@H]1C(=O)O)c1cc2ccccc2[nH]1	6.44	
CC(C)(C)OC(=O)[C@H]1CN(c2ccccc2)C(=O)[C@H]1NC(=O)c1ccc2ccccc2c1	< 6.00	
